Reference: paper PMC6017121, “New Thiazoline-Tetralin Derivatives and Biological Activity Evaluation” (Molecules : A Journal of Synthetic Chemistry and Natural …, 2018)

Tests used:
[1] = tested on: human breast adenocarcinoma cell line (MCF-7); assay: MTT cytotoxicity assay on MCF-7; type: cell-based; conditions: for IC50: Homo sapiens, MCF7, MTT, 24 h incubation; for SI MCF-7 (selectivity index): NIH/3T3 versus MCF-7
Procedure: (§1) This is a colorimetric assay that measures the reduction of 3-(4,5-dimethylthiazol-2-yl)-2,4,diphenyltetrazolium bromide (MTT) by mitochondria. All final compounds were tested against human breast adenocarcinoma cell line (MCF-7), human lung carcinoma cell line (A549) and mouse embryooblast cell line (NIH/3T3) to determine their cytotoxic profile. Cancer cells were cultured in RPMI medium (Hyclone, Thermo Scientific, Waltham, MA, USA) at 37 °C in a humidified atmosphere of 95% air and 5% CO2. The studied cells were situated at 2 × 10^4 cells into each well of 96-well microtiter tissue culture plates (Nunc, Denmark) and incubated for 24 h. After that, test compounds were dissolved in DMSO and added to culture wells at varying concentrations (85–1000 µM). After a 24 h incubating period, […] MTT solution (5 mg/mL MTT powder in PBS) was added to each well and the cells were incubated for 4 h at 37 °C. The purple formazan crystals produced were dissolved in DMSO and the absorbance was read by ELISA reader (OD570 nm). The percent values of cell proliferations were calculated relative to controls, whose cell proliferations were accepted as 100% [47].

[2] = tested on: human lung carcinoma cell line (A549); assay: MTT cytotoxicity assay on A549; type: cell-based; conditions: for IC50: Homo sapiens, A549, MTT, 24 h incubation; for SI A549 (selectivity index): NIH/3T3 versus A549
Procedure: as §1

[3] = tested on: mouse embryoblast cell line (NIH/3T3); assay: MTT cytotoxicity assay on NIH/3T3 (healthy cells); type: cell-based; conditions: NIH3T3, 24 h incubation
Procedure: as §1

MCF-7 cells [4] = assay: Annexin V-FITC/propidium iodide flow cytometry on MCF-7; type: cell-based, human; conditions: MCF-7 cell line, IC50 concentration; for % Early Apoptotic / % Late Apoptotic / % Necrotic / % Viable: 24 h
Procedure: (§2) Evaluation of apoptosis was carried out through the Annexin V-FITC Apoptosis Detection Kit from BD, Pharmingen, according to the manufacturer’s instruction. […] Then cells were rinsed with cold water twice and resuspended in Annexin V-FITC binding buffer at a concentration of 1 × 10^6 cells/mL. […] of Annexin V-FITC was used to stain the cells. After 15 min of incubation at 25 °C, the cell suspension was centrifugated for 5 min and cells were resuspended in Annexin V-FITC binding buffer. Propidium iodide ([…]) was added and the tubes were situated on ice and away from light. The fluorescence was measured using a flow cytometer. The results were analyzed by using FCSExpress software and represented as percentage of normal and apoptotic cells at various stages. […] The four areas in the diagrams stand for necrotic cells (Q1, positive for PI and negative for annexin/FITC, left square on the top), live cells (Q3, negative for annexin and PI, left square at the bottom), late apoptotic or necrotic cells (Q2, positive for annexin and PI, right square on the top) and apoptotic cells (Q4, negative for PI and positive for annexin, right square at the bottom), respectively. The experiment was repeated three times.

[5] = biological target: acetylcholinesterase (AChE) (Homo sapiens, UniProt P22303); assay: biochemical; conditions: 80 µg/mL (~160 µM)
Sequence of acetylcholinesterase (AChE) (P22303 32-614, species assumed): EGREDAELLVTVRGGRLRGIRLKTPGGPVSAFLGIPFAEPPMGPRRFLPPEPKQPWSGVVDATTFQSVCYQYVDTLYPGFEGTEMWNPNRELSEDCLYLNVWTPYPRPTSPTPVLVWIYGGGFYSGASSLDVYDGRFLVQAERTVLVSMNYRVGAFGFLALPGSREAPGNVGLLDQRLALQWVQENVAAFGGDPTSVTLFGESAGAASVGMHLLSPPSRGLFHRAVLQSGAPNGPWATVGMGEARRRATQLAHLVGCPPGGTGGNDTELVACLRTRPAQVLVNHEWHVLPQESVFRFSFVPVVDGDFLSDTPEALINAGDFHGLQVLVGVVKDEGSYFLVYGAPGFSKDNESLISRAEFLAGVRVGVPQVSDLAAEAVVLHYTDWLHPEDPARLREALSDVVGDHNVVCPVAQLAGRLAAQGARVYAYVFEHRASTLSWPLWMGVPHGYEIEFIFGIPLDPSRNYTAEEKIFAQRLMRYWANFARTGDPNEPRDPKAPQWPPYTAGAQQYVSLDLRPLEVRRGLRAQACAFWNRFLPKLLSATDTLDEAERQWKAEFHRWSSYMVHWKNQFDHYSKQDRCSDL
Procedure: (§3) In order to determine the acetyl- and butyrylcholinesterase enzyme inhibitions, experiments were carried out by making some changes in the method developed by Ellman. Samples were prepared by dissolving in the appropriate solvent. Adding 20 μL enzyme solution (AChE or BuChE, 1 U/mL) and 10 μL sample solution to 2.4 mL buffer solution and it was incubated for 15 min at 37 °C. After incubation, 50 μL DTNB and 75 mM ATCI solution or 20 μL of 25 mM BTCI solution were added and allowed the mixture to incubate at room temperature for 30 min. For the control group, only 10 μL of solvent was added instead of the sample solution provided all protocols are the same. […] Experiments were run in triplicate. The inhibition fractions of AChE […] BuChE enzymes were calculated using the following equation:I(%) = 100 − ([…]) × 100

[6] = biological target: butyrylcholinesterase (BuChE) (Homo sapiens, UniProt P06276); assay: biochemical; conditions: 80 µg/mL (~160 µM)
Sequence of butyrylcholinesterase (BuChE) (P06276 29-602): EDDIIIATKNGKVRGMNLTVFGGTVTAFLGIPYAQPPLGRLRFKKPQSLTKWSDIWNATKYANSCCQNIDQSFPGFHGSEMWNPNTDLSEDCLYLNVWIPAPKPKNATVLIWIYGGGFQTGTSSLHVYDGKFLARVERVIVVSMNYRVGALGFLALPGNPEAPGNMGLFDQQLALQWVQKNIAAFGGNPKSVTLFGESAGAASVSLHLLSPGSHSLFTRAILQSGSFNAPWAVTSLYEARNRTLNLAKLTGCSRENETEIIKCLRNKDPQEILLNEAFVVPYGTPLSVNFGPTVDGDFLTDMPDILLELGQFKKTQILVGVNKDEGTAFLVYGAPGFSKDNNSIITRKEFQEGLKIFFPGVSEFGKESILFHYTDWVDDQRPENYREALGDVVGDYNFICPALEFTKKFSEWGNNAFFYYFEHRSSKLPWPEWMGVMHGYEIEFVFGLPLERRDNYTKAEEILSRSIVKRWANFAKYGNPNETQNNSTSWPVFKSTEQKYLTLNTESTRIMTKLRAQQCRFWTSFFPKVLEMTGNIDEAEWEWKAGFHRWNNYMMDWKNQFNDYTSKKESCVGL
Procedure: as §3

A549 cells = assay: Annexin V-FITC/propidium iodide flow cytometry on A549; type: cell-based, human; conditions: A549 cell line, IC50 concentration; for % Early Apoptotic / % Late Apoptotic / % Necrotic / % Viable: 24 h
Procedure: as §2

MCF-7 cells [7] = assay: DNA synthesis inhibition (BrdU) on MCF-7

Row | Compound | IC50 [1] | SI MCF-7 (selectivity index) [1] | IC50 [2] | SI A549 (selectivity index) [2] | IC50 [3] | apoptosis (early + late apoptotic cell percentage) MCF-7 (MCF-7 cells [4]) | inhibition at 160 µM [5] | inhibition at 80 µg/mL [6] | % Early Apoptotic (MCF-7 cells [4]) | % Late Apoptotic (MCF-7 cells [4]) | % Necrotic (MCF-7 cells [4]) | % Viable (MCF-7 cells [4]) | apoptosis (early + late apoptotic cell percentage) A549 (A549 cells) | % Early Apoptotic (A549 cells) | % Late Apoptotic (A549 cells) | % Necrotic (A549 cells) | % Viable (A549 cells) | inhibition at 160 µM [6] | inhibition at 69.2 µM (MCF-7 cells [7]; Homo sapiens, MCF7, 96 h, read-out: DNA synthesis inhibition on MCF-7 at IC50) | DNA synthesis inhibition on MCF-7 at IC50/2 (MCF-7 cells [7]; IC50/2 concentration (4b 34.6 μM; 4d 36.9 μM, b49: 35.9 μM))
1 | COc1ccc(-c2csc(=NNC(=O)COc3ccc4c(c3)CCCC4)n2-c2ccccc2)cc1 [Compound 4e, N′-[3-Phenyl-4-(4-methoxyphenyl)thiazole-2(3H)-ylidene]-2-[(5,6,7,8-tetrahydronaphthalen-2-yl)oxy]acetohydrazide] | 91.4 ± 9.8 µM | > 10.9 | 708 ± 83.3 µM | > 1.4 | > 1000 µM | 32.5% | 10.8 ± 0.94% | < 0% | – | – | – | – | – | – | – | – | – | – | – | –
2 | O=C(COc1ccc2c(c1)CCCC2)NN=c1scc(-c2cccc([N+](=O)[O-])c2)n1-c1ccccc1 [Compound 4i, N′-[3-Phenyl-4-(3-nitrophenyl)thiazole-2(3H)-ylidene]-2-[(5,6,7,8-tetrahydronaphthalen-2-yl)oxy]acetohydrazide] | > 1000 µM | – | > 1000 µM | – | > 1000 µM | – | 41.85 ± 0.23% | < 0% | – | – | – | – | – | – | – | – | – | – | – | –
3 | COc1ccc(-c2csc(=NNC(=O)COc3ccc4c(c3)CCCC4)n2C2CCCCC2)cc1 [Compound 4b, N′-[3-Cyclohexyl-4-(4-methoxyphenyl)thiazole-2(3H)-ylidene]-2-[(5,6,7,8-tetrahydronaphthalen-2-yl)oxy]acetohydrazide] | 69.2 ± 5.8 µM | 0.8 | 138 ± 7.2 µM | 0.4 | 55.7 ± 1.2 µM | 29.8% | 11.1 ± 1.48% | – | 0.7% | 29.1% | 63.8% | 6.3% | 73.6% | 6.6% | 67.0% | 15.6% | 10.9% | 15.9 ± 1.72% | 48.5% | 31.39%
4 | O=C(COc1ccc2c(c1)CCCC2)NN=c1scc(-c2cccc(Cl)c2Cl)n1-c1ccccc1 [Compound 4k, N′-[3-Phenyl-4-(2,3-dichlorophenyl)thiazole-2(3H)-ylidene]-2-[(5,6,7,8-tetrahydronaphthalen-2-yl)oxy]acetohydrazide] | 153 ± 27.5 µM | 1.1 | > 1000 µM | – | 165 ± 11 µM | – | 15.2 ± 1.99% | < 0% | 2.4% | 8.9% | 34.4% | 54.3% | – | – | – | – | – | – | – | –
5 | O=C(COc1ccc2c(c1)CCCC2)NN=c1scc(-c2ccc(Br)cc2)n1-c1ccccc1 [Compound 4f, N′-[3-Phenyl-4-(4-bromophenyl)thiazole-2(3H)-ylidene]-2-[(5,6,7,8-tetrahydronaphthalen-2-yl)oxy]acetohydrazide] | 281 ± 56.2 µM | 0.5 | 54.3 ± 6.8 µM | 2.7 | 147 ± 5.4 µM | – | 42.9 ± 2.84% | < 0% | – | – | – | – | over 41.5% | 16.5% | 29.3% | 6.5% | 47.7% | – | – | –
